Data taken from US20110166121A1 (LG LIFE SCIENCES LTD., priority 2008, published 2011).
Structures can show the parent of a compound that is named as a salt.

Tested on: Human platelet aggregation caused by ADP
Test: Inhibition of ADP-induced platelet aggregation (Mimic-human PRP)
Type: cell-based
Details: 20 μM ADP, human platelet concentrate diluted with PPP, absorption at 595 nm
Summary of the method: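 Human PRP diluted with PPP to 3–4×10^8 platelets/mL was preincubated 20 min at room temperature with compound (0.01–30 μM, DMSO), then stimulated with 20 μM ADP. Aggregation read as A595 increase at 3 min versus 0 and 20 μM ADP controls; Ki from sigmoidal non-linear regression.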

Compound	Ki
CCCc1cc2c(N3CCn4c(nnc4C(F)(F)F)C3)nc(NCCNC(C)=O)nc2s1 [Example 8-7, N-{2-[6-Propyl-4-(3-trifluoromethyl-5,6-dihydro-8H-[1,2,4]triazolo[4,3-a]pyrazin-7-yl)-thieno[2,3-d]pyrimidin-2-ylamino]-ethyl}-acetamide]	32 nM
CCCc1cc2c(N3CCn4c(nnc4C(F)(F)F)C3)nc(OCC(C)NC(=O)OC)nc2s1 (centres unmarked) [Example 9-81, {1-Methyl-2-[6-propyl-4-(3-trifluoromethyl-5,6-dihydro-8H-[1,2,4]triazolo[4,3-a]pyrazin-7-yl)-thieno[2,3-d]pyrimidin-2-yloxy]-ethyl}-carbamic acid methyl ester]	7 nM
CCCc1cc2c(N3CCn4c(nnc4C(F)(F)F)C3)nc(N3CC[C@H](NC(=O)CO)C3)nc2s1 [Example 1-100, 2-Hydroxy-N-{(S)-1-[6-propyl-4-(3-trifluoromethyl-5,6-dihydro-8H-[1,2,4]triazolo[4,3-a]pyrazin-7-yl)-thieno[2,3-d]pyrimidin-2-yl]-pyrrolidin-3-yl}-acetamide]	6 nM
CCCCN(C)C(=O)[C@H]1CCN(c2nc(N3CCn4c(nnc4C(F)(F)F)C3)c3cc(CCC)sc3n2)C1 [Example 9-63, (S)-1-[6-Propyl-4-(3-trifluoromethyl-5,6-dihydro-8H-[1,2,4]triazolo[4,3-a]pyrazin-7-yl)-thieno[2,3-d]pyrimidin-2-yl]-pyrrolidine-3-carboxylic acid butyl-methyl-amide]	2000 nM
CCCc1cc2c(N3CCn4c(nnc4C(F)(F)F)C3)nc(N3CCN(C(=O)C(C)C)CC3)nc2s1 [Example 7-16, Hydrochloric acid salt of 2-Methyl-1-{4-[6-propyl-4-(3-trifluoromethyl-5,6-dihydro-8H-[1,2,4]triazolo[4,3-a]pyrazin-7-yl)-thieno[2,3-d]pyrimidin-2-yl]-piperazin-1-yl}-propan-1-one]	590 nM
CCCc1cc2c(N3CCn4c(nnc4C(F)(F)F)C3)nc(OCCNC(=O)N3CCCC3)nc2s1 [Example 9-26, Pyrrolidine-1-carboxylic Acid {2-[6-propyl-4-(3-trifluoromethyl-5,6-dihydro-8H-[1,2,4]triazolo[4,3-a]pyrazin-7-yl)-thieno[2,3-d]pyrimidin-2-yloxy]-ethyl}-amide]	16 nM
CCCc1cc2c(N3CCn4c(nnc4C(F)(F)F)C3)nc(N3CC[C@H](C(=O)NC4CCCC4)C3)nc2s1 [Example 9-64, (S)-1-[6-Propyl-4-(3-trifluoromethyl-5,6-dihydro-8H-[1,2,4]triazolo[4,3-a]pyrazin7-yl)-thieno[2,3-d]pyrimidin-2-yl]-pyrrolidine-3-carboxylic acid cyclopentylamide]	1400 nM
CCCc1cc2c(N3CCn4c(nnc4C(F)(F)F)C3)nc(N3CC4N=COC4C3)nc2s1 (centres unmarked) [Example 9-34, 7-[6-Propyl-2-(3a,4,6,6a-tetrahydro-pyrrolo[3,4-d]oxazol-5-yl)-thieno[2,3-d]pyrimidin-4-yl]-3-trifluoromethyl-5,6,7,8-tetrahydro-[1,2,4]triazolo[4,3-a]pyrazine]	15 nM
CCCc1cc2c(N3CCn4c(nnc4C(F)(F)F)C3)nc(N3CC(N)C(N)C3)nc2s1 (centres unmarked) [Example 7-27, Di-hydrochloric acid salt of 1-[6-Propyl-4-(3-trifluoromethyl-5,6-dihydro-8H-[1,2,4]triazolo[4,3-a]pyrazin-7-yl)-thieno[2,3-d]pyrimidin-2-yl]-pyrrolidine-3,4-diamine]	17 nM
CCCc1cc2c(N3CCn4c(nnc4C(F)(F)F)C3)nc(N3CC[C@H](N(CCO)C(C)=O)C3)nc2s1 [Example 9-96, N-(2-Hydroxy-ethyl)-N-{(S)-1-[6-propyl-4-(3-trifluoromethyl-5,6-dihydro-8H-[1,2,4]triazolo[4,3-a]pyrazin-7-yl)-thieno[2,3-d]pyrimidin-2-yl]-pyrrolidin-3-yl}-acetamide]	78 nM
CCCC(=O)NC[C@@H]1CCN(c2nc(N3CCn4c(nnc4C(F)(F)F)C3)c3cc(CCC)sc3n2)C1 [Example 8-2, N-{(S)-1-[6-Propyl-4-(3-trifluoromethyl-5,6-dihydro-8H-[1,2,4]triazolo[4,3-a]pyrazin-7-yl)-thieno[2,3-d]pyrimidin-2-yl]-pyrrolidin-3-ylmethyl}-butyramide]	110 nM
CCCc1cc2c(N3CCn4c(nnc4C(F)(F)F)C3)nc(NCCNC=O)nc2s1 [Example 9-31, N-{2-[6-Propyl-4-(3-trifluoromethyl-5,6-dihydro-8H-[1,2,4]triazolo[4,3-a]pyrazin-7-yl)-thieno[2,3-d]pyrimidin-2-ylamino]-ethyl}-formamide]	87 nM
CCCc1cc2c(N3CCn4c(nnc4C(F)(F)F)C3)nc(NCCc3c[nH]cn3)nc2s1 [Example 9-45, [2-(1H-Imidazol-4-yl)-ethyl]-[6-propyl-4-(3-trifluoromethyl-5,6-dihydro-8H-[1,2,4]triazolo[4,3-a]pyrazin-7-yl)-thieno[2,3-d]pyrimidin-2-yl]-amine]	38 nM
CCCc1cc2c(N3CCn4c(nnc4C(F)(F)F)C3)nc(-n3cc(C)cn3)nc2s1 [Example 9-55, 7-[2-(4-Methyl-pyrazol-1-yl)-6-propyl-thieno[2,3-d]pyrimidin-4-yl]-3-trifluoromethyl-5,6,7,8-tetrahydro-[1,2,4]triazolo[4,3-a]pyrazine]	340 nM
CCCc1cc2c(N3CCn4c(nnc4C(F)(F)F)C3)nc(N3CC[C@H](N(CCO)C(=O)OC)C3)nc2s1 [Example 9-94, (2-Hydroxy-ethyl)-{(S)-1-[6-propyl-4-(3-trifluoromethyl-5,6-dihydro-8H-[1,2,4]triazolo[4,3-a]pyrazin-7-yl)-thieno[2,3-d]pyrimidin-2-yl]-pyrrolidin-3-yl}-carbamic acid methyl ester]	280 nM
CCCc1cc2c(N3CCn4c(nnc4C(F)(F)F)C3)nc(Nc3cc[nH]n3)nc2s1 [Example 9-53, [6-Propyl-4-(3-trifluoromethyl-5,6-dihydro-8H-[1,2,4]triazolo[4,3-a]pyrazin-7-yl)-thieno[2,3-d]pyrimidin-2-yl]-(1H-pyrazol-3-yl)-amine]	31 nM
CCCc1cc2c(N3CCn4c(nnc4C(F)(F)F)C3)nc(N3CC(NC(C)=O)C(OC(C)=O)C3)nc2s1 (centres unmarked) [Example 7-18, Acetic acid 4-acetylamino-1-[6-propyl-4-(3-trifluoromethyl-5,6-dihydro-8H-[1,2,4]triazolo[4,3-a]pyrazin-7-yl)-thieno[2,3-d]pyrimidin-2-yl]-pyrrolidin-3-yl ester]	6.5 nM
CCCc1cc2c(N3CCn4c(nnc4C(F)(F)F)C3)nc(OCCNC(=O)CO)nc2s1 [Example 7-32, 2-Hydroxy-N-{2-[6-propyl-4-(3-trifluoromethyl-5,6-dihydro-8H-[1,2,4]triazolo[4,3-a]pyrazin-7-yl)-thieno[2,3-d]pyrimidin-2-yloxy]-ethyl}-acetamide]	0.8 nM
CCCc1cc2c(N3CCn4c(nnc4C(F)(F)F)C3)nc(N3CCC[C@@H](NC(=O)C(C)C)C3)nc2s1 [Example 7-8, Hydrochloric acid salt of N-{(R)-1-[6-Propyl-4-(3-trifluoromethyl-5,6-dihydro-8H-[1,2,4]triazolo[4,3-a]pyrazin-7-yl)-thieno[2,3-d]pyrimidin-2-yl]-piperidin-3-yl}-isobutyramide]	150 nM
CCCc1cc2c(N3CCn4c(nnc4C(F)(F)F)C3)nc(N3CC[C@H](CNC(C)=O)C3)nc2s1 [Example 8-4, N-{(R)-1-[6-Propyl-4-(3-trifluoromethyl-5,6-dihydro-8H-[1,2,4]triazolo[4,3-a]pyrazin-7-yl)-thieno[2,3-d]pyrimidin-2-yl]-pyrrolidin-3-ylmethyl}-acetamide]	14 nM
CCCc1cc2c(N3CCn4c(nnc4C(F)(F)F)C3)nc(OCC(C)(C)NC(=O)OC)nc2s1 [Example 9-82, {1,1-Dimethyl-2-[6-propyl-4-(3-trifluoromethyl-5,6-dihydro-8H-[1,2,4]triazolo[4,3-a]pyrazin-7-yl)-thieno[2,3-d]pyrimidin-2-yloxy]-ethyl}-carbamic acid methyl ester]	5 nM
CCCc1cc2c(N3CCn4c(nnc4C(F)(F)F)C3)nc(N(C)CCC(N)=O)nc2s1 [Example 9-104, 3-{Methyl-[6-propyl-4-(3-trifluoromethyl-5,6-dihydro-8H-[1,2,4]triazolo[4,3-a]pyrazin-7-yl)-thieno[2,3-d]pyrimidin-2-yl]-amino}-propionamide]	14 nM
CCCC(=O)N1CC[C@@H](Nc2nc(N3CCn4c(nnc4C(F)(F)F)C3)c3cc(CCC)sc3n2)C1 [Example 8-17, 1-{(R)-3-[6-Propyl-4-(3-trifluoromethyl-5,6-dihydro-8H-[1,2,4]triazolo[4,3-a]pyrazin-7-yl)-thieno[2,3-d]pyrimidin-2-ylamino]-pyrrolidin-1-yl}-butan-1-one]	35 nM
CCCc1cc2c(N3CCn4c(nnc4C(F)(F)F)C3)nc(OCCCNC(=O)OC)nc2s1 [Example 9-86, {3-[6-Propyl-4-(3-trifluoromethyl-5,6-dihydro-8H-[1,2,4]triazolo[4,3-a]pyrazin-7-yl)-thieno[2,3-d]pyrimidin-2-yloxy]-propyl}-carbamic acid methyl ester]	690 nM
CCCc1cc2c(N3CCn4c(nnc4C(F)(F)F)C3)nc(NC[C@@H]3CCN(C(C)=O)C3)nc2s1 [Example 8-19, 1-((S)-3-{[6-Propyl-4-(3-trifluoromethyl-5,6-dihydro-8H-[1,2,4]triazolo[4,3-a]pyrazin-7-yl)-thieno[2,3-d]pyrimidin-2-ylamino]-methyl}-pyrrolidin-1-yl)-ethanone]	150 nM
CCCc1cc2c(N3CCn4c(nnc4C(F)(F)F)C3)nc(OCCNC(=O)OC)nc2s1 [Example 9-19, {2-[6-Propyl-4-(3-trifluoromethyl-5,6-dihydro-8H-[1,2,4]triazolo[4,3-a]pyrazin-7-yl)-thieno[2,3-d]pyrimidin-2-yloxy]-ethyl}-carbamic acid methyl ester]	3 nM
